Reference: paper PMC8245078, “Development of novel benzofuran-isatin conjugates as potential antiproliferative agents with apoptosis inducing mechanism in Colon cancer” (Journal of Enzyme Inhibition and Medicinal Chemistry, 2021)

Experiments:
SW-620 cells = test: Annexin V-FITC/propidium iodide apoptosis assay; format: cell-based, human; details: for total increase in apoptosis vs control untreated cells: 24 h; for induction of apoptosis (in words): SW-620, 5 and 10 µM; for total increase in apoptosis vs control untreated cells, range: SW-620, over the concentrations 5 and 10 µM
Procedure: Further investigation for compounds 5a and 5d concerning their potential role of apoptosis induction, using Annexin V-FITC/PI double staining assay, was performed to evaluate their impact on both early and late apoptosis percentages in SW-620 cancer cell lines (Figure 6). […] As shown, compound 5a induced approximately 1.7-folds and 3.8-folds total increase in apoptosis at concentration of 5 µM and 10 µM, respectively, in comparison to the control untreated SW-620 cell line (Figure 6(A)).
Figure 6. (A) AnnexinV/PI apoptosis assay for compound 5a. Tow concentrations (5 and 10 µM) of compound 5a, in addition untreated plate as a control were used to test the apoptotic effect by using Annexin V/PI in SW-620 cell line. Cells were treated with the compound 5a for 24 h. (B) AnnexinV/PI apoptosis assay for compound 5d. Tow concentrations (5 and 10 µM) of compound 5d, in addition untreated plate as a control were used to test the apoptotic effect by using Annexin V/PI in SW-620 cell line. Cells were treated with the compound 5d for 24 h. […] Their printed values are 1.93%, 2.06%, 1.81% in panel A and 0.73%, 2.01%, 1.62% in panel B. […]
2.4. Measurement of Apoptosis by Annexin V-FITC/PI Assay
Induction of apoptosis was measured by Dead Cell Apoptosis Kit with Annexin V FITC and PI, for flow cytometry (Thermofischer scientific, OR, USA) according to the manufacturer’s instruction. SW620 cells were seeded in a 6-well plate (3 × 10^5 cells per well) and treated with the various compound for 24h. Both floating and adherent cells were harvested, pooled together, and incubated with Annexin V-FITC and PI for 15 min on ice in dark. The cells were analyzed by BD FACSCalibur™ cell analyzer (BD Biosciences, CA, USA) at an emission of 530 nm (FL1 channel) and >575 nm (FL3). […]

[1] = tested on: SW-620 colorectal cancer cell line; test: MTT cell viability assay; format: cell-based, human; details: for inhibition of SW-620 cancer cells viability: 10 µM, 24 h, MTT
Procedure: In the present investigation a new set of benzofuran–isatin hybrids (5a–e and 7a–i) was synthesised to be evaluated for their potential anticancer activity towards two human colorectal cancer cell lines, SW-620 and HT-29. […] Both, SW-620 and HT-29 cells were treated with 10 µM of each compound for 24 h and the percent cell viability was calculated using MTT assay.
For this reason, compounds 5a and 5d were pursued for further studies. Starting with determination of IC50s and cytotoxic selectivity studies. Serial concentrations of compounds 5a and 5d were used to examine their impact on cell viability using MTT protocol. Results of concentration vs percent viability were charted, and the IC50 was calculated for SW-620 and HT-29 cell lines using Graph Pad prism 8 (Figure 4). […]
[(Ti-Tz)/Tz] x 100 for concentrations for which Ti<Tz […]
SW620 and HT29 colorectal cancer cell lines and HFF-1 fibroblast (ATCC, Rockville, USA) were used. HT29 cells were cultured and maintained in Dulbecco’s Modified Eagles Medium (DMEM) (GIBCO, by Thermo Fischer Scientific, NY, USA) supplemented with 10% fetal bovine serum (FBS), 100 units/mL penicillin, and 100 μg streptomycin. SW620 and HFF-1 cells were cultured in Roswell Park Memorial Institute medium (RPMI-1640) (GIBCO, by Thermo scientific, NY, USA) supplemented with 10% FBS and 1% penicillin and streptomycin (Napolitano et al., 2015). All cultures were incubated at 37 °C and humidified atmosphere of 5% […]
2.3. Cell Viability Assay
The cytotoxicity effect of compounds on the colorectal cancer cell lines, SW620 and HT29 in addition to the normal human fibroblasts was measured by MTT (3-(4, 5-dimethylthiazol-2-yl)-2,5-diphenyltetrazolium bromide) (Sigma-Aldrich, St. Louis, MO, USA) as previously described. Briefly, cells were seeded in 96 well culture plates at 5000/well for HT29 and 10,000/well for SW620 for 24 h. Cells were then incubated with different compounds from WAG1 series (1-15) 24h at 37 °C and humidified 5% CO2 incubator. Freshly prepared 10 μl of 3-(4,5-dimethylthiazol-2-yl)-2,5-diphenyltetrazolium bromide (MTT 5 mM) solution were added to the cells and further incubated for 2 h. Thereafter, 100 μl of dimethyl sulfoxide (DMSO) were added in each well and the crystals were dissolved through careful pipetting. In certain experiment, cells were treated different concentration of 5FU for 72 h. The absorbance of the product was measured at 540 nm using a Synergy™ 2 multi-mode microplate reader (Biotech, VA, USA). The experiments were performed in triplicate for each condition. […]
The total protein concentration was evaluated by the colorimetric
Bradford protein assay (BIO-RAD inc, CA, USA) at 595 nm absorbance. Lysates were loaded in […]

[2] = Homo sapiens, SW-620, SW-620, MTT

Row | Compound | total increase in apoptosis vs control untreated cells (SW-620 cells; SW-620, 5 µM) | total increase in apoptosis vs control untreated cells (SW-620 cells; SW-620, 10 µM) | induction of apoptosis (in words) (SW-620 cells) | total increase in apoptosis vs control untreated cells, range (SW-620 cells) | inhibition of SW-620 cancer cells viability [1] | IC50 [1, 2] | IC50 ([1]; SW-620, MTT)
1 | Cc1c(C(=O)N/N=C2\C(=O)Nc3ccccc32)oc2ccccc12 [Compound 5a] | approximately 1.7 folds | ~3.8 folds | dose dependent induction of apoptosis | 1.7–3.8 folds | 46% | 8.7 µM | 9.4 µM
2 | COc1ccc2c(c1)/C(=N/NC(=O)c1oc3ccccc3c1C)C(=O)N2 [Compound 5d] | ~2.9 folds | ~3.8 folds | dose dependent induction of apoptosis | 2.9–3.8 folds | about 52% | 6.5 µM | 9.8 µM
